From patent publication US20180148418A1, “AMIDO-SUBSTITUTED CYCLOHEXANE DERIVATIVES” (Bayer Pharma Aktiengesellschaft, priority 2015, published 2018)
pIC50: −log10 of the molar value.

Target: T1, TNKS1 (Homo sapiens, UniProt O95271)
T1 construct: purchased BPS Bioscience, San Diego, USA 80579 (TNKS1 Histone Ribosylation Assay Kit)
T1 sequence (O95271 1-1327): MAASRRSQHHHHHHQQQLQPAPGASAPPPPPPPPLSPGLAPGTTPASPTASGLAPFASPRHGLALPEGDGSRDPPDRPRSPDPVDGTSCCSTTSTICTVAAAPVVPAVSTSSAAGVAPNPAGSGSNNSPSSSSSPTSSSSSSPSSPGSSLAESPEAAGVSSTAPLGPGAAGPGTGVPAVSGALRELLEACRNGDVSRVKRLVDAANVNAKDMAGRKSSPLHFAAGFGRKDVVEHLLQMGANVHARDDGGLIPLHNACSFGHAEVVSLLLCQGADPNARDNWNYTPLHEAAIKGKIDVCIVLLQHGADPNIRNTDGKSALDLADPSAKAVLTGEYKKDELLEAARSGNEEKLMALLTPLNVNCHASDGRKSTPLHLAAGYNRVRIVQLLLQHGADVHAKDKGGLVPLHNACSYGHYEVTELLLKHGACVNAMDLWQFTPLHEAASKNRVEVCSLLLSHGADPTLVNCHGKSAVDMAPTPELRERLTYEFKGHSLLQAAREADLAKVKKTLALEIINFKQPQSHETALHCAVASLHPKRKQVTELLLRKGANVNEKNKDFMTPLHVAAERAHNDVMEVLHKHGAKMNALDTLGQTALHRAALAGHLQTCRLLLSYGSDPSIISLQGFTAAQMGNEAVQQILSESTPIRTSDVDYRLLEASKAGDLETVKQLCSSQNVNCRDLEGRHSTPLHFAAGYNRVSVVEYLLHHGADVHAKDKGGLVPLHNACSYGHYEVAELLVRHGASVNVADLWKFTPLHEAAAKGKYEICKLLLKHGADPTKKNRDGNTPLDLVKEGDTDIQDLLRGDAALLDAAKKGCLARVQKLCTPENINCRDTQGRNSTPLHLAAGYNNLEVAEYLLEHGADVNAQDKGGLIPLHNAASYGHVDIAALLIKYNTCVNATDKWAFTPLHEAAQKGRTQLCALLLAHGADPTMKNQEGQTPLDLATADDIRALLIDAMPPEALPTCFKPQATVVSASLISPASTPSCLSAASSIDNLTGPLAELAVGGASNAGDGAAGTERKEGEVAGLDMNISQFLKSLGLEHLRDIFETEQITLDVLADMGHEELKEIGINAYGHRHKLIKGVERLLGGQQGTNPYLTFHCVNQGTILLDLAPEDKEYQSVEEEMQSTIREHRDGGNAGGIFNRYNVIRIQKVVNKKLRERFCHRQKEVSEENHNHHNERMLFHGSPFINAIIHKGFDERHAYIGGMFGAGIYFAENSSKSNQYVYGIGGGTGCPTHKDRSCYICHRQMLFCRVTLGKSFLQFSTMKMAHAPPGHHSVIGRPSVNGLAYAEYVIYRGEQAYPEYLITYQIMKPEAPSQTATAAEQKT
Test: TNKS1 Assay B (auto-parsylation, [3H]-NAD+ SPA)
Assay type: biochemical
Details: 6 nM TNKS1, auto-parsylation, over night at room temperature

| Structure (SMILES) | pIC50 |
| --- | --- |
| CNC(=O)c1[nH]cnc1C(=O)N[C@@H]1CC[C@@H](C(=O)Nc2ccc(F)cc2Cl)C[C@@H]1F (racemic) [Example 31, N^4-{(1α,2α,4β)-4-[(2-chloro-4-fluorophenyl)carbamoyl]-2-fluorocyclohexyl}-N^5-methyl-1H-imidazole-4,5-dicarboxamide] | 6.82 |
| CNC(=O)c1[nH]cnc1C(=O)N[C@@H]1CC[C@@H](C(=O)Nc2ccc(F)cc2Cl)C[C@H]1OC (racemic) [Example 35, N^4-{(1α,2β,4β)-4-[(2-chloro-4-fluorophenyl)carbamoyl]-2-methoxycyclohexyl}-N^5-methyl-1H-imidazole-4,5-dicarboxamide] | < 5.00 |
| CNC(=O)c1[nH]cnc1C(=O)N[C@H]1CC[C@H](C(=O)Nc2ccc(F)cc2Cl)CC1(F)F (single isomer, unassigned) [Example 33, N^4-{(trans)-4-[(2-chloro-4-fluorophenyl)carbamoyl]-2,2-difluorocyclohexyl}-N^5-methyl-1H-imidazole-4,5-dicarboxamide] | 6.14 |
| CNC(=O)c1[nH]cnc1C(=O)NC1CCC(C(=O)Nc2ccc(F)cc2Cl)CC1C (single isomer, unassigned) [Example 41, N^4-{4-[(2-chloro-4-fluorophenyl)carbamoyl]-2-methylcyclohexyl}-N^5-methyl-1H-imidazole-4,5-dicarboxamide] | < 5.00 |
| CNC(=O)c1[nH]cnc1C(=O)N[C@@H]1CC[C@@H](C(=O)Nc2ccc(F)cc2Cl)CC1(F)F (stereo in doubt) [Example 32, N^4-{(trans)-4-[(2-chloro-4-fluorophenyl)carbamoyl]-2,2-difluorocyclohexyl}-N^5-methyl-1H-imidazole-4,5-dicarboxamide] | 6.44 |
| CNC(=O)c1nc[nH]c1C(=O)N[C@H]1CC[C@H](C(=O)Nc2ccc(F)cc2Cl)CC1 [Example 1, N^5-{trans-4-[(2-chloro-4-fluorophenyl)carbamoyl]cyclohexyl}-N^4-methyl-1H-imidazole-4,5-dicarboxamide] | 7.14 |
| O=C(N[C@H]1CC[C@H](C(=O)Nc2ccc(F)cc2Cl)CC1)c1[nH]cnc1C(=O)N1CC2(CCS2(=O)=O)C1 [Example 22, N-{trans-4-[(2-chloro-4-fluorophenyl)carbamoyl]cyclohexyl}-4-[(1,1-dioxido-1-thia-6-azaspiro[3.3]hept-6-yl)carbonyl]-1H-imidazole-5-carboxamide] | 8.00 |
| O=C(N[C@H]1CC[C@H](C(=O)Nc2ccc(F)cc2Cl)CC1)c1[nH]cnc1C(=O)N1CCC1 [Example 23, 4-(azetidin-1-ylcarbonyl)-N-{trans-4-[(2-chloro-4-fluorophenyl)carbamoyl]cyclohexyl}-1H-imidazole-5-carboxamide] | 7.68 |
| COC1CN(C(=O)c2nc[nH]c2C(=O)N[C@H]2CC[C@H](C(=O)Nc3ccc(F)cc3Cl)CC2)C1 [Example 24, 4 N-{trans-4-[(2-chloro-4-fluorophenyl)carbamoyl]cyclohexyl}-4-[(3-methoxyazetidin-1-yl)carbonyl]-1H-imidazole-5-carboxamide] | 7.68 |
| O=C(NCCN1CC2(CCO2)C1)c1nc[nH]c1C(=O)N[C@H]1CC[C@H](C(=O)Nc2ccc(F)cc2Cl)CC1 [Example 25, N^5-{trans-4-[(2-chloro-4-fluorophenyl)carbamoyl]cyclohexyl}-N^4-[2-(1-oxa-6-azaspiro[3.3]hept-6-yl)ethyl]-1H-imidazole-4,5-dicarboxamide] | 7.89 |
| CN(C)C1CN(C(=O)c2nc[nH]c2C(=O)N[C@H]2CC[C@H](C(=O)Nc3ccc(F)cc3Cl)CC2)C1 [Example 26, N-{trans-4-[(2-chloro-4-fluorophenyl)carbamoyl]cyclohexyl}-4-{[3-(dimethylamino)azetidin-1-yl]carbonyl}-1H-imidazole-5-carboxamide] | 7.21 |
| CNC(=O)c1nc[nH]c1C(=O)N[C@H]1CC[C@H](C(=O)Nc2c(Br)cc(F)c(F)c2F)CC1 [Example 27, N^5-{trans-4-[(6-bromo-2,3,4-trifluorophenyl)carbamoyl]cyclohexyl}-N^4-methyl-1H-imidazole-4,5-dicarboxamide] | 7.52 |
| CNC(=O)c1nc[nH]c1C(=O)N[C@H]1CC[C@H](C(=O)Nc2c(F)cc(F)cc2Br)CC1 [Example 28, N^5-{trans-4-[(6-bromo-2,4-difluorophenyl)carbamoyl]cyclohexyl}-N^4-methyl-1H-imidazole-4,5-dicarboxamide] | 7.17 |
| CNC(=O)c1ncoc1C(=O)N[C@H]1CC[C@H](C(=O)Nc2ccc(F)cc2Cl)CC1 [Example 29, N^5-{trans-4-[(2-chloro-4-fluorophenyl)carbamoyl]cyclohexyl}-N^4-methyl-1,3-oxazole-4,5-dicarboxamide] | 6.19 |
| CNC(=O)c1ocnc1C(=O)N[C@H]1CC[C@H](C(=O)Nc2ccc(F)cc2Cl)CC1 [Example 30] | < 5.00 |

More lines, now with the values ahead:

| pIC50 | Structure (SMILES) |
| --- | --- |
| < 5.00 | O=C(NC1CCC(F)(C(=O)Nc2ccc(F)cc2Cl)CC1)c1cnn2cccnc12 (single isomer, unassigned) [Example 365, N-{4-[(2-chloro-4-fluorophenyl)carbamoyl]-4-fluorocyclohexyl}pyrazolo[1,5-a]pyrimidine-3-carboxamide (single isomer)] |
| < 5.00 | CNC(=O)c1[nH]cnc1C(=O)NC1CCC(F)(C(=O)Nc2ccc(F)cc2Cl)CC1 (single isomer, unassigned) [Example 366, N^4-{4-[(2-chloro-4-fluorophenyl)carbamoyl]-4-fluorocyclohexyl}-N^5-methyl-1H-imidazole-4,5-dicarboxamide (single isomer)] |
| 6.74 | O=C(NCC1CCCO1)c1nc[nH]c1C(=O)N[C@H]1CC[C@H](C(=O)Nc2c(F)cc(F)cc2Cl)CC1 (stereo in doubt) [Example 71, N^5-{trans-4-[(2-chloro-4,6-difluorophenyl)carbamoyl]cyclohexyl}-N^4-[(2R)-tetrahydrofuran-2-ylmethyl]-1H-imidazole-4,5-dicarboxamide] |
| 6.92 | Cc1cc(C)n2ncc(C(=O)NC3CCC(C(=O)Nc4ccc(F)cc4Cl)CC3C)c2n1 (centres unmarked) [Example 42, N-{4-[(2-chloro-4-fluorophenyl)carbamoyl]-2-methylcyclohexyl}-5,7-dimethylpyrazolo[1,5-a]pyrimidine-3-carboxamide] |
| 7.09 | O=C(N[C@H]1CC[C@H](C(=O)Nc2ccc(F)cc2Cl)CC1)c1cnn2cccnc12 [Example 43, N-{trans-4-[(2-chloro-4-fluorophenyl)carbamoyl]cyclohexyl}pyrazolo[1,5-a]pyrimidine-3-carboxamide] |
| 7.32 | Cc1cc(C)n2ncc(C(=O)N[C@H]3CC[C@H](C(=O)Nc4ccc(F)cc4Cl)CC3)c2n1 [Example 44, N-{trans-4-[(2-chloro-4-fluorophenyl)carbamoyl]cyclohexyl}-5,7-dimethylpyrazolo[1,5-a]pyrimidine-3-carboxamide] |
| 6.51 | O=C(N[C@H]1CC[C@H](C(=O)Nc2ccc(F)cc2Cl)CC1)c1cnc2cccnn12 [Example 45, N-{trans-4-[(2-chloro-4-fluorophenyl)carbamoyl]cyclohexyl}imidazo[1,2-b]pyridazine-3-carboxamide] |
| 7.19 | CC(=O)c1cnc2c(C(=O)N[C@H]3CC[C@H](C(=O)Nc4ccc(F)cc4Cl)CC3)cnn2c1C [Example 46, 6-acetyl-N-{trans-4-[(2-chloro-4-fluorophenyl)carbamoyl]cyclohexyl}-7-methylpyrazolo[1,5-a]pyrimidine-3-carboxamide] |
